Our source for the T/C values is PubChem BioAssay AID248 (DTP/NCI, 2004).

“And” between values parts separate entries of the source, which are not always exact repeats. Equal entries are not always repeated. Inconclusive results and toxic doses are left out.

For this assay, the system named is L1210 leukemia ip in BDF1 mice, survival T/C. Description: NCI In Vivo Anticancer Drug Screen. Data for tumor model L1210 Leukemia (intraperitoneal) in B6D2F1 (BDF1) mice. Conditions: endpoint: mean survival time, higher = longer survival. The method in brief: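 Antitumor effect is assessed in tumor-bearing animals. Survival in the compound arm is compared with a vehicle-dosed control arm and expressed as their quotient.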

[1] abbreviates: dose: 100.0 mg/kg/injection, schedule: Q01DX009 (ip), vehicle: Klucel (hydroxypropylcellulose) (HPC).
The mark [2] stands for this setting: dose: 200.0 mg/kg/injection, schedule: Q01DX009 (ip), vehicle: Klucel (hydroxypropylcellulose) (HPC).
The mark [3] stands for this setting: dose: 50.0 mg/kg/injection, schedule: Q01DX009 (ip), vehicle: saline with Tween-80.
Where [4] appears, read: dose: 400.0 mg/kg/injection, schedule: Q01DX001 (ip), vehicle: saline.
Where [5] appears, read: dose: 50.0 mg/kg/injection, schedule: Q01DX001 (ip), vehicle: saline.
Setting [6] is: dose: 100.0 mg/kg/injection, schedule: Q01DX001 (ip), vehicle: saline.
Setting [7] is: dose: 200.0 mg/kg/injection, schedule: Q01DX001 (ip), vehicle: saline.
[8] abbreviates: dose: 100.0 mg/kg/injection, schedule: Q01DX009 (ip), vehicle: saline with Tween-80.
Setting [9] is: dose: 200.0 mg/kg/injection, schedule: Q01DX009 (ip), vehicle: saline with Tween-80.

Turning to `C/C(=N\NC(N)=S)C(O)c1ccccc1` (centres undefined), the T/C is, setting by setting: (dose: 5.0 mg/kg/injection, schedule: Q01DX001 (ip), vehicle: other) 105 % of control; (dose: 10.0 mg/kg/injection, schedule: Q01DX001 (ip), vehicle: other) 100 % of control; (dose: 20.0 mg/kg/injection, schedule: Q01DX001 (ip), vehicle: other) 105 % of control; (dose: 40.0 mg/kg/injection, schedule: Q01DX001 (ip), vehicle: other) 100 % of control; (dose: 80.0 mg/kg/injection, schedule: Q01DX001 (ip), vehicle: other) 105 % of control.
In the case of `CC(C)N=C(NC(C)C)N1CC1`, the T/C runs as follows: (dose: 10.0 mg/kg/injection, schedule: Q01DX009 (ip), vehicle: saline) 106 % of control; (dose: 20.0 mg/kg/injection, schedule: Q01DX001 (ip), vehicle: saline) 104 % of control; (dose: 20.0 mg/kg/injection, schedule: Q01DX009 (ip), vehicle: saline) 105 % of control; (dose: 40.0 mg/kg/injection, schedule: Q01DX001 (ip), vehicle: saline) 104 % of control; (dose: 40.0 mg/kg/injection, schedule: Q01DX009 (ip), vehicle: saline) 100 % of control.
For `c1ccc(-c2nnc(-c3ccccc3)o2)cc1`, the T/C (dose: 50.0 mg/kg/injection, schedule: Q01DX009 (ip), vehicle: Klucel (hydroxypropylcellulose) (HPC)) is 95 % of control; the T/C under setting [1] is 101 % of control; the T/C under setting [2] was 94 % of control.
Turning to `OCC1OC(n2c3ccccc3c3ccccc32)C(O)C1O` (centres undefined), the T/C (dose: 60.0 mg/kg/injection, schedule: Q04DX002 (ip), vehicle: DMSO) was 97 % of control and the T/C (dose: 120.0 mg/kg/injection, schedule: Q04DX002 (ip), vehicle: DMSO) was 102 % of control.
As to `C=C1C(=O)O[C@@H]2CC(C)=C3CC[C@@](C)(O)[C@@H]3C[C@H]12`, the T/C by setting is: (dose: 75.0 mg/kg/injection, schedule: Q04DX003 (ip), vehicle: Klucel (hydroxypropylcellulose) (HPC)) 106 % of control; (dose: 150.0 mg/kg/injection, schedule: Q04DX003 (ip), vehicle: Klucel (hydroxypropylcellulose) (HPC)) 102 % of control; (dose: 300.0 mg/kg/injection, schedule: Q04DX003 (ip), vehicle: Klucel (hydroxypropylcellulose) (HPC)) 98 % of control; (dose: 600.0 mg/kg/injection, schedule: Q04DX003 (ip), vehicle: Klucel (hydroxypropylcellulose) (HPC)) 94 % of control.
`NC(=S)N/N=C/c1cccc(CC(O)(C(F)(F)F)C(F)(F)F)n1`: the T/C reads like this: (dose: 12.5 mg/kg/injection, schedule: Q01DX009 (ip), vehicle: saline with Tween-80) 97 % of control; (dose: 25.0 mg/kg/injection, schedule: Q01DX009 (ip), vehicle: saline with Tween-80) 95 % of control; under setting [3], 93 % of control.
In the case of `CCOC(=O)C(N)CCSSCCC(N)C(=O)OCC` (centres undefined), the T/C runs as follows: (dose: 177.0 mg/kg/injection, schedule: Q01DX001 (ip), vehicle: saline) 92 % of control; (dose: 267.0 mg/kg/injection, schedule: Q01DX001 (ip), vehicle: saline) 92 % of control; under setting [4], 95 % of control; (dose: 600.0 mg/kg/injection, schedule: Q01DX001 (ip), vehicle: saline) 104 % of control.
Regarding `CCCCCCCCc1nc2c([nH]1)c(=O)n(C)c(=O)n2C`, the T/C is, setting by setting: under setting [5], 87 % of control; under setting [6], 90 % of control; under setting [7], 90 % of control; under setting [4], 102 % of control.
In the case of `CCN(CC)CCNc1ccc(C)c2sc3ccccc3c(=O)c12` (tested in a mixture with another compound), the T/C reads like this: (dose: 6.0 mg/kg/injection, schedule: Q01DX009 (ip), vehicle: carboxymethylcellulose (CMC)) 102 % of control; (dose: 12.0 mg/kg/injection, schedule: Q01DX009 (ip), vehicle: carboxymethylcellulose (CMC)) 98 % of control; (dose: 17.0 mg/kg/injection, schedule: Q01DX015 (ip), vehicle: saline) 102 % of control; (dose: 25.0 mg/kg/injection, schedule: Q01DX009 (ip), vehicle: carboxymethylcellulose (CMC)) 109 % of control; (dose: 26.0 mg/kg/injection, schedule: Q01DX015 (ip), vehicle: carboxymethylcellulose (CMC)) 108 % of control; (dose: 26.0 mg/kg/injection, schedule: Q01DX015 (ip), vehicle: saline) 101 % of control. Besides, the T/C is 102 % of control (dose: 35.0 mg/kg/injection, schedule: Q01DX009 (ip), vehicle: saline); 110 % of control (dose: 39.0 mg/kg/injection, schedule: Q01DX015 (ip), vehicle: carboxymethylcellulose (CMC)); 113 % of control and 118 % of control (dose: 40.0 mg/kg/injection, schedule: Q01DX015 (ip), vehicle: saline); 116 % of control (dose: 59.0 mg/kg/injection, schedule: Q01DX015 (ip), vehicle: carboxymethylcellulose (CMC)); 104 % of control (dose: 75.0 mg/kg/injection, schedule: Q01DX009 (ip), vehicle: saline); 202 % of control (dose: 89.0 mg/kg/injection, schedule: Q01DX015 (ip), vehicle: saline). In addition, the T/C by setting is: (dose: 133.0 mg/kg/injection, schedule: Q01DX009 (ip), vehicle: carboxymethylcellulose (CMC)) 123 % of control; (dose: 175.0 mg/kg/injection, schedule: Q01DX001 (ip), vehicle: saline) 100 % of control; (dose: 200.0 mg/kg/injection, schedule: Q01DX015 (ip), vehicle: saline) 112 % of control; (dose: 265.0 mg/kg/injection, schedule: Q01DX001 (ip), vehicle: saline) 105 % of control; (dose: 300.0 mg/kg/injection, schedule: Q01DX015 (ip), vehicle: carboxymethylcellulose (CMC)) 91 % of control; under setting [4], 122 % of control.
For `O=C(OCc1ccccc1CN1CCOCC1)c1ccc(Br)cc1`, the T/C reads like this: (dose: 100.0 mg/kg/injection, schedule: Q04DX002 (ip), vehicle: Klucel (hydroxypropylcellulose) (HPC)) 100 % of control; (dose: 200.0 mg/kg/injection, schedule: Q04DX002 (ip), vehicle: Klucel (hydroxypropylcellulose) (HPC)) 92 % of control; (dose: 400.0 mg/kg/injection, schedule: Q04DX002 (ip), vehicle: Klucel (hydroxypropylcellulose) (HPC)) 103 % of control.
Consider `OCC1c2ccccc2C(CO)c2c1ccc1ccccc21` (centres undefined), for which the T/C was 98 % of control (dose: 100.0 mg/kg/injection, schedule: Q01DX001 (ip), vehicle: Klucel (hydroxypropylcellulose) (HPC)); 98 % of control (dose: 200.0 mg/kg/injection, schedule: Q01DX001 (ip), vehicle: Klucel (hydroxypropylcellulose) (HPC)); 100 % of control (dose: 400.0 mg/kg/injection, schedule: Q01DX001 (ip), vehicle: Klucel (hydroxypropylcellulose) (HPC)).
As for `C1=CCC(OC2CCCCO2)=CC1` (centres undefined), the T/C runs as follows: under setting [8], 96 % of control; under setting [9], 94 % of control; (dose: 400.0 mg/kg/injection, schedule: Q01DX009 (ip), vehicle: saline with Tween-80) 87 % of control.
On to `N#Cc1[nH]cnc1N`, for which the T/C was 94 % of control under setting [6], 105 % of control under setting [7] and 97 % of control under setting [4].
Regarding `CNC(C)c1ccc(C)cc1` (centres undefined), the T/C (dose: 6.25 mg/kg/injection, schedule: Q01DX009 (ip), vehicle: saline) was 123 % of control; the T/C (dose: 12.5 mg/kg/injection, schedule: Q01DX009 (ip), vehicle: saline) is 95 % of control; the T/C (dose: 25.0 mg/kg/injection, schedule: Q01DX009 (ip), vehicle: saline) was 100 % of control.
Take `Cc1cc(=O)[nH]c2c(C)cccc12`: the T/C runs as follows: (dose: 100.0 mg/kg/injection, schedule: Q01DX001 (ip), vehicle: carboxymethylcellulose (CMC)) 93 % of control; under setting [6], 95 % of control; under setting [1], 104 % of control; (dose: 200.0 mg/kg/injection, schedule: Q01DX001 (ip), vehicle: carboxymethylcellulose (CMC)) 104 % of control; under setting [7], 98 % of control; under setting [2], 108 % of control. Further, the T/C was 98 % of control (dose: 400.0 mg/kg/injection, schedule: Q01DX001 (ip), vehicle: carboxymethylcellulose (CMC)); 87 % of control under setting [4]; 105 % of control (dose: 400.0 mg/kg/injection, schedule: Q01DX009 (ip), vehicle: Klucel (hydroxypropylcellulose) (HPC)).
Consider `CC(=O)OC1CC2C=CC1C2` (centres undefined) (tested in a mixture with another compound), for which the T/C was 89 % of control under setting [3], 89 % of control under setting [8] and 92 % of control under setting [9].
For `O=C(O)C12C3(Cl)C4(Cl)C(O)(O)C5(Cl)C3(Cl)C1(Cl)C5(Cl)C42Cl` (centres undefined), the T/C under setting [5] is 102 % of control, the T/C under setting [6] was 105 % of control, the T/C under setting [7] was 96 % of control and the T/C under setting [4] is 110 % of control.
